Measurements published in paper PMC3038857, “Using Nuclear Receptor Activity to Stratify Hepatocarcinogens” (PLoS ONE, 2011).
Read-outs that look alike come from different tables or passages of the source.

What was measured:
[1] = tested on: CAR; assay: Aggregate nuclear receptor activity: CAR; conditions: aggregate human NR activity, in words
Description: (§1) To summarize the activity of chemicals across the NR superfamily we aggregated the ToxCast assays for genes and NR groups as follows: retinoic X receptor-like (RXR; [drawing 5]; NR2B); peroxisome proliferator-activated receptor-like (PPAR; [drawing 6]; NR1C); constitutive androstane receptor ( [drawing 7]; [drawing 8]; [drawing 9] ); pregnane X receptor ( [drawing 10]; [drawing 11] ); liver X receptor-like (LXR; [drawing 12] , FXR; NR1H); and steroid receptor-like (SR; [drawing 13] , [drawing 14] , [drawing 15] ). These are shown visually in Figure 1(a). As there were differences in the number and types of assays for each group, aggregate activity was calculated as the average potency across the assays measured by the AC50 or LEC (described in Methods). This approach aggregated NR binding, activation, agonism or antagonism results into a single assessment of activity.
(§2) All data used in this analysis are publicly available from the ToxCast website (www.epa.gov/toxcast). The analysis was conducted using the R statistical language (www.r-project.org). For each chemical [drawing 77] , and assay [drawing 78] combination we derived either the AC50 (50% maximal activity concentration) or LEC (Lowest Effective Concentration) in [drawing 79] M denoted as, [drawing 80] . All chemicals are provided in Dataset S3 and all assays are given in Dataset S1. The procedure for evaluating the quality of [drawing 81] are described in the supplementary methods (Text S1) and all assay results are provided in Dataset S2. In order to facilitate comparison across the assays the [drawing 82] were transformed by the formula, [drawing 83] where [drawing 84] represents a the potency on an ascending scale, and [drawing 85] is the maximum concentration (lowest potency) across the data set.
(§3) The aggregate NR activity [drawing 86] , where [drawing 87] , was calculated using assays [drawing 88] . The aggregate scaled NR activity score for each chemical [drawing 89] was calculated as the average concentration value across the assays, scaled by the maximum value across all chemicals using Equation 1. [drawing 90] (1)

[2] = tested on: PXR; assay: Aggregate nuclear receptor activity: PXR; parameters: species or system human
Description: as §1, §2, §3

[3] = tested on: PPAR; assay: Aggregate nuclear receptor activity: PPAR; conditions: aggregate human NR activity, in words
Description: as §1, §2, §3

[4] = tested on: PPAR; parameters: method as in PMID 17084873; conditions: in rats; cited from earlier work
[5] = tested on: SR (steroid receptor-like); assay: Aggregate nuclear receptor activity: SR; conditions: aggregate human NR activity, in words
Description: as §1, §2, §3

[6] = tested on: liver; assay: Cancer lesion progression: 2-year chronic rat and mouse liver histopathology (ToxRefDB), lesion progression groups (LPG); conditions: liver lesions after 2-year chronic treatment, ToxRefDB data clustered into groups I-VIII
[7] = tested on: AhR; assay: Aggregate nuclear receptor activity: AhR; conditions: aggregate human NR activity, in words
Description: as §1, §2, §3

[8] = tested on: SR; conditions: cited from earlier work
[9] = tested on: human PXR; parameters: method as in PMID 16565514; conditions: cited from earlier work
[10] = tested on: liver; conditions: in vivo
[11] = tested on: LXR; assay: Aggregate nuclear receptor activity: LXR; conditions: aggregate human NR activity, in words
Description: as §1, §2
as §3, with “(1)” left out

[12] = tested on: cytochrome P-450 in the 2B subfamily; conditions: mouse, in vivo; cited from earlier work
[13] = tested on: AhR, CAR, PXR, PPAR, LXR, SR and RXR
[14] = aggregate human NR activity, in words

| Compound | activity with CAR [1] | activity with PXR [2, 14] | activity with PPAR [3] | activity with SR [5] | activity with AhR [7] | lesion progression group (LPG) [10] | further results |
| --- | --- | --- | --- | --- | --- | --- | --- |
| CCCN(CCOc1c(Cl)cc(Cl)cc1Cl)C(=O)n1ccnc1 [Prochloraz, N-propyl-N-[2-(2,4,6-trichlorophenoxy)ethyl]-1H-imidazole-1-carboxamide] | most consistently active | active |  |  |  |  |  |
| COC(=O)C(C)Oc1ccc(Oc2ccc(Cl)cc2Cl)cc1 (stereo not drawn) [Diclofop-methyl, methyl 2-[4-(2,4-dichlorophenoxy)phenoxy]propanoate] | some activity | some activity | most consistently active | some activity | some activity |  | PPAR activity [4]: active; lesion progression group (LPG) [6]: I |
| CNC(=O)Oc1cccc2ccccc12 [Carbaryl, naphthalen-1-yl methylcarbamate] |  |  |  |  |  |  | SR activity [8]: activity |
| CC(C)Oc1cc(-n2nc(C(C)(C)C)oc2=O)c(Cl)cc1Cl [Oxadiazon, 5-tert-butyl-3-(2,4-dichloro-5-isopropoxyphenyl)-1,3,4-oxadiazol-2(3H)-one] | consistently active | consistently active | less frequently | less frequently | consistently active | I | human PXR activity [9]: known human PXR activity; activity with LXR [11]: less frequently |
| CCOC(=O)CC(SP(=S)(OC)OC)C(=O)OCC (stereo not drawn) [Malathion, diethyl 2-[(dimethoxyphosphorothioyl)thio]succinate] | some activity | some activity | most consistently active | some activity | some activity |  | SR activity [8]: known SR activity |
| C#CC(C)(C)NC(=O)c1cc(Cl)cc(Cl)c1 [Propyzamide, 3,5-dichloro-N-(1,1-dimethylprop-2-yn-1-yl)benzamide] | most consistently active | active |  |  | active |  |  |
| CCNC(=O)NC(=O)/C(C#N)=N/OC [Cymoxanil, (2E)-2-cyano-N-(ethylcarbamoyl)-2-(methoxyimino)acetamide] |  |  |  |  |  | Cymoxanil |  |
| CC(C1CC1)C(O)(Cn1cncn1)c1ccc(Cl)cc1 (stereo not drawn) [Cyproconazole, 2-(4-chlorophenyl)-3-cyclopropyl-1-(1H-1,2,4-triazol-1-yl)butan-2-ol] |  |  |  |  |  |  | expression of a cytochrome P-450 in the 2B subfamily [12]: induce expression |
| CCOC(=O)C(C)OC(=O)c1cc(Oc2ccc(C(F)(F)F)cc2Cl)ccc1[N+](=O)[O-] (stereo not drawn) [Lactofen, 2-ethoxy-1-methyl-2-oxoethyl 5-[2-chloro-4-(trifluoromethyl)phenoxy]-2-nitrobenzoate] | consistently active |  | less frequently | less frequently | consistently active | I | activity with PXR [2]: consistently active; activity with LXR [11]: less frequently |
| Cl[C@H]1[C@H](Cl)[C@@H](Cl)[C@@H](Cl)[C@H](Cl)[C@H]1Cl [Lindane, (1r,2R,3S,4r,5R,6S)-1,2,3,4,5,6-hexachlorocyclohexane] |  | active |  |  | active | Lindane |  |
| CCCCOC(=O)c1ccccc1C(=O)OCCCC [Dibutyl phthalate, dibutyl phthalate] |  |  |  |  |  |  | overall NR activity [13]: low NR activity |
| C=CCOC(Cn1ccnc1)c1ccc(Cl)cc1Cl (stereo not drawn) [Imazalil, 1-[2-(allyloxy)-2-(2,4-dichlorophenyl)ethyl]-1H-imidazole] | some activity | some activity | most consistently active | some activity | some activity |  |  |
| C=CC1(C)OC(=O)N(c2cc(Cl)cc(Cl)c2)C1=O (stereo not drawn) [Vinclozolin, 3-(3,5-dichlorophenyl)-5-methyl-5-vinyl-1,3-oxazolidine-2,4-dione] |  |  | most consistently active | some activity | some activity | I | SR activity [8]: known SR active; activity with PXR [2]: some activity |
| CS(=O)(=O)c1cc(C(F)(F)F)ccc1C(=O)c1cnoc1C1CC1 [Isoxaflutole, (5-cyclopropylisoxazol-4-yl)[2-(methylsulfonyl)-4-(trifluoromethyl)phenyl]methanone] |  |  |  |  |  | I |  |
| N#Cc1c[nH]cc1-c1cccc2c1OC(F)(F)O2 [Fludioxonil, 4-(2,2-difluoro-1,3-benzodioxol-4-yl)-1H-pyrrole-3-carbonitrile] |  | consistently active | less frequently | less frequently |  |  | activity with LXR [11]: less frequently |
| CC1(C)C(C=C(Cl)Cl)C1C(=O)OCc1cccc(Oc2ccccc2)c1 (stereo not drawn) [Permethrin, [3-(phenyloxy)phenyl]methyl 3-(2,2-dichloroethenyl)-2,2-dimethylcyclopropanecarboxylate] | most consistently active | active |  |  | active |  |  |
| CC[C@H](C)[C@H]1O[C@]2(C=C[C@@H]1C)C[C@@H]1C[C@@H](C/C=C(\C)[C@@H](O[C@H]3C[C@H](OC)[C@@H](O[C@H]4C[C@H](OC)[C@@H](NC)[C@H](C)O4)[C@H](C)O3)[C@@H](C)/C=C/C=C3\CO[C@@H]4[C@H](O)C(C)=C[C@@H](C(=O)O1)[C@]34O)O2.O=C(O)c1ccccc1 [Emamectin benzoate, (2aE,4E,5\S,6S,6\R,7S,8E,11R,13S,15S,17aR,20R,20aR,20bS)-20,20b-dihydroxy-5\,6,8,19-tetramethyl-6\-[(1S)-1-methylpropyl]-17-oxo-5\,6,6\,10,11,14,15,17,17a,20,20a,20b-dodecahydro-2H,7H-spiro[11,15-methanofuro[4,3,2-pq][2,6]benzodioxacyclooctadecine-13,2\-pyran]-7-yl 2,6-dideoxy-3-O-methyl-4-O-[2,4,6-trideoxy-3-O-methyl-4-(methylammonio)-a-L-arabino-hexopyranosyl]-a-L-arabino-hexopyranoside benzoate] |  |  |  |  |  | Emamectin benzoate |  |
